By % Inhibition is commonly meant the percentage by which the read-out fell short of the control. A higher % Inhibition goes with strong suppression.

In series [1] the test system is monoclonal antibody 3A6-1 Mab. The experiment in a line: competitive inhibition liquid phase RIA (monoclonal antibody specificity). It is filed as binding, mouse. Conditions: 50 ng inhibitor, 500 pg 3H-Avm B1a; for % ^3H-Tritium bound: antibody amount binding about 50% of label (Mab alone: 42). The procedure: Specificity is determined by a competitive inhibition liquid phase RIA. The specificity is determined by contacting a known amount of labelled antigen (³H-Avm B1a) with constant amounts of other avermectins or ivermectin and then contacting this mixture with a constant amount of antibody specific for the labelled antigen. The concentration of antibody is an amount that is sufficient to bind about 50% of the labelled antigen employed in the assay.
Specificity is determined by a competitive inhibition liquid phase RIA. The specificity is determined by contacting a known amount of labelled antigen (³H-Avm B1a), 500 pg with constant amounts of other avermectins or ivermectin and then contacting this mixture with a constant amount of antibody specific for the labelled antigen. The concentration of antibody is an amount that is sufficient to bind about 50% of the labelled antigen employed in the assay.

The nature of series [2]: detection of avermectin in mouse serum by competitive liquid phase RIA after intraperitoneal injection. In kind it is in vivo, BALB/c mice. The note with it: for Concentration per tube: serum at 1:10 dilution. The source says: Monoclonal antibody specifically reactive with a common epitope or common epitopes contained within the compounds of the avermectin family and derivatives thereof are used serologically to identify and quantitate avermectins, including ivermectin, in animal body fluids and cell-free extracts. Body fluids include, but are not limited to, blood, serum, plasma, milk, urine, cerebrospinal fluid and the like. Cell-free extracts as used herein are defined as the fluids derived from disrupted cells. The avermectins can be identified and the concentration determined by a variety of immunoassays or serological assays which include, but are not limited to: immunoradiometric assays, employing labelled antibodies, Miles and Hales, Nature 219: 186 […] or a sandwich variant according to Addison and Hales, Hormone. Meta. Res. 3: 59 (1971); enzyme immunoassays, employing competitive assays with antigen-enzyme conjugates according to the method of Van Weeman and Schours, F.E.B.S. Lett. 15: 232 (1971) or enzyme-labelled antibody assays according to the procedure of Envall and Perlman, Immunochem. 8: 871 (1971) or a variant of the enzyme-labelled antibody assay which employs detection by a second antibody according to the process of Hammarstrom et al., Proc. Natl. Acad. Sci. USA 72: 1528 (1975) or non-competitive sandwich (ELISA) methods, see Nakamura et al., in Handbood of Experimental Immunology, Vol. 1, Immunochemistry, D. M. Weir, ed. 4th Edition (1986), Blackwell Scientific Publications, Oxford, pp. 27.1-27.20; or any other assay which will determine the concentration or presence of avermectin. The preferred assay is a competitive inhibition liquid phase radioimmuno assay (RIA). The avermectin concentration in animal body fluids is determined by diluting the fluid in an appropriate assay buffer. An appropriate assay buffer may include, but is not limited to, buffered saline, phosphate buffer, phosphate buffered saline, Dulbecco's phosphate buffered saline, Dulbecco's calcium-and-magnesium-free buffered saline and Tris buffer containing about 0.1 % CHAPSO with Tris-CHAPSO being preferred. The labelled antigen (³H-Avm) is diluted to a concentration of about 200 pg to about 700 pg, with about 500 pg being preferred, and contacted with an anti-avermectin monoclonal antibody at a concentration that will bind about 25% to about 75% of the labelled antigen, with about 50% being preferred. To the labelled antigen-antibody mixture is added an appropriate concentration or dilution of the unknown or sample containing avermectin or the standard containing a known amount of avermectin. The reactants are incubated at about 4° C to about 30° C, with about 25° C being preferred, for about 30 minutes to about 4 h, with about 2.5 h being preferred. All dilutions are made in the assay buffer and all determinations are made in duplicate. Non-antibody-bound radioactive avermectin is removed from the reaction mixture by chromatographic, precipitation, immunoprecipitation or adsorption techniques with adsorption of the unbound antigen onto dextran-coated activated charcoal being preferred. The dextran-coated charcoal is prepared by suspending activated charcoal, USP, at about 3% (w/v) in about 10 mM phosphate buffer, pH about 7.5, containing about 0.25% (w/v) dextran, about 60,000 to about 90,000 average mol. wt., with about 70,000 average mol. wt. being preferred. The dextran-coated activated charcoal is washed and resuspended in assay buffer and stored at a concentration of about 3%. About 1 ml of the dextran-coated activated charcoal suspension (dilution predetermined) is added to each sample and the samples are incubated for about 10 min at about 4° C. The charcoal is pelleted by centrifugation at about 3500 rpm for about 15 min. The supernatant quid is collected and the radioactivity counted in a liquid scintillation counter. […]

With 22, 23-dihydroavermectin B₁ [Ivm], in series [1], the “% Inhibition” value was 63% and the “% ^3H-Tritium bound” value is 16%.

On to `CCC(C)[C@H]1O[C@]2(C=C[C@@H]1C)C[C@@H]1C[C@@H](C/C=C(\C)[C@@H](O[C@H]3C[C@H](OC)[C@@H](O[C@H]4C[C@H](OC)[C@@H](O)[C@H](C)O4)[C@H](C)O3)[C@@H](C)/C=C/C=C3\CO[C@@H]4[C@H](O)C(C)=C[C@@H](C(=O)O1)[C@]34O)O2` (stereo partly drawn) [B1a, avermectin B1a], for which the “% Inhibition” value in series [1] is 53%. The “% ^3H-Tritium bound” value in series [1] worked out at 20%. Besides, the figures for the Concentration per tube in series [2] (15 min after 10 mg per Kg IP in sesame oil), in series [2] (30 min after 10 mg per Kg IP in sesame oil) and in series [2] (60 min after 10 mg per Kg IP in sesame oil) were 2.4 ng, 13 ng and 42 ng, respectively. The same molecule yielded a concentration at 0.25 h in series [2] (mouse, serum, 10 mg/kg, 15 min after 10 mg per Kg IP in sesame oil, corrected for volume (50 µl) and dilution (1:10)) of 0.48 µg/mL. Further, the concentration at 0.5 h in series [2] (mouse, serum, 10 mg/kg, 30 min after 10 mg per Kg IP in sesame oil, corrected for volume (50 µl) and dilution (1:10)) was 2.6 µg/mL. For the same molecule, the concentration at 1 h in series [2] (mouse, serum, 10 mg/kg, 60 min after 10 mg per Kg IP in sesame oil, corrected for volume (50 µl) and dilution (1:10)) amounted to 8.4 µg/mL.

On to `CC[C@H](C)[C@H]1O[C@@]2(C[C@@H]3C[C@@H](C/C=C(\C)[C@@H](O[C@H]4C[C@H](OC)[C@@H](O[C@H]5C[C@H](OC)[C@@H](O)[C@H](C)O5)[C@H](C)O4)[C@@H](C)/C=C/C=C4\CO[C@@H]5[C@H](O)C(C)=C[C@@H](C(=O)O3)[C@]45O)O2)C[C@H](O)[C@@H]1C` [B2a, avermectin B2a], for which, in series [1], the “% Inhibition” value is reported as 58% and the “% ^3H-Tritium bound” value is recorded as 18%.

Values taken from EP0450936A1, “Monoclonal antibody to avermectins” (MERCK & CO. INC., priority 1990, dated 1991).
